Laboratory results reported in article PMC13305993, “Bioassay-Guided Phytochemical Investigation of Vietnamese Vitex rotundifolia Leaves and the Liverwort Ptychanthus striatus as Sources of SARS-CoV-2 Main Protease Inhibitors” (Molecules, 2026).

Target: SARS-CoV-2 Mpro (Severe acute respiratory syndrome coronavirus 2, UniProt P0DTD1)
Assay: biochemical
Settings: isolated compounds at 100 µg/mL; triplicate, mean (Figure 3)

C=C(C)[C@@H]1CC[C@]2(C(=O)O)CC[C@]3(C)[C@H](CC[C@@H]4[C@@]5(C)CC[C@H](O)C(C)(C)[C@@H]5CC[C@]43C)[C@@H]12 [V10, betulinic acid]
inhibition at 100 µg/mL: 0%
